Patent US20040029843A1, “Rapidly disintegrating formulations for treating or preventing mucositis” (OraPharma, Inc., priority 2002, published 2004)
Structures can show the parent of a compound that is named as a salt.

Test system: mucositis induced by acute radiation exposure of the cheek pouch
Experiment: Hamster cheek pouch model of radiation-induced oral mucositis, clinical scoring 0-5
Assay type: in vivo, Hamsters
Details: 0.1 ml of 0.1 mg/ml aqueous solution topically three times a day for 22 days; for reduction in the number of animal days with scores of 3 or more relative to the control group: 35 Gy on day 0; for mucositis scores versus placebo control group: 35 Gy on day 0, visual score 0-5
Description: Hamsters were randomly assigned to treatment groups with eight (8) animals per group. Each group was treated either with a drug solution or a control, water.
Animals were dosed three times a day for 22 days. The first dose was applied on day -1. Either a solution of the drug or water alone was applied in a volume of 0.1 ml three times per day.
Mucositis was induced by acute radiation exposure of the check pouch. A single dose of radiation (35 Gy/dose) was administered to all animals on Day 0. Prior to irradiation, animals were anesthetized with an intraperiotoneal injection of sodium pentobarbital (80 mg/kg) and the left buccal pouch was everted, fixed and isolated using a lead shield.
Beginning on day 6 and continuing every other day up to day 28, the cheek pouch was photographed. On days that photographs were taken, prior to the first dosing of the day, the animals were anesthetized using an inhalation anesthetic and the left cheek pouch of each animal was rinsed vigorously with sterile water to remove residual food debris or foreign contamination and blotted dry with a gauze sponge. The appearance of the cheek pouch was scored visually by comparison to a validated photographic scale, ranging from 0 for normal to 5 for severe ulceration (clinical scoring). In descriptive terms, this scale is defined as follows: […]
0 Pouch completely healthy. No erythema or vasodilatation
1 Light to […] erythema and vasodilatation. No erosion of mucosa
2 Severe erythema and vasodilatation. Erosion of superficial aspects of mucosa leaving denuded areas. Decreased stippling of mucosa
3 Formation of off-white ulcers in one or more places. Ulcers may have a yellow/gray color due to pseudomembrane formation. Cumulative size of ulcers up to ¼ of the pouch surface. Severe erythema and vasodilatation
4 Cumulative size of ulcers ¼ to ½ of the pouch surface. Loss of pliability. Severe erythema and vasodilatation
5 Virtually all of pouch is ulcerated. Loss of pliability (pouch can only partially be extracted from mouth).
A score of 1-2 represents mild stage of the disease, whereas a score of 3-5 indicates moderate to severe mucositis.

Row | Compound | reduction in the number of animal days with scores of 3 or more relative to the control group | mucositis scores versus placebo control group
1 | CN(C)[C@@H]1C(O)=C(C(N)=O)C(=O)[C@@]2(O)C(O)=C3C(=O)c4c(O)cccc4[C@@](C)(O)[C@H]3C[C@@H]12 [tetracycline hydrochloride] | more than 75% | Significantly lower scores
2 | meclocycline sulfosalicylate | more than 75% | Significantly lower scores
